The values below come from paper doi:10.1101/2025.10.24.684335v1 (bioRxiv, 2025).

Common to all, as to assay type: cell-based, human
One assay concerns AKT. In words: AKT phosphorylation. To be noted: normalized to GAPDH.
Another assay deals with ERK. The assay is described as follows: ERK phosphorylation in hCMEC/D3 monolayers, Western blot. The conditions noted are these: normalized to GAPDH. (A western blot detects proteins with antibodies after separation by electrophoresis.)
In a further assay the test system is RAGE. In words: RAGE expression in hCMEC/D3 membrane fraction, Western blot. To be noted: normalized to calnexin.
For another assay, the system named is claudin-5. In words: Claudin-5 immunocytochemistry in hCMEC/D3 monolayers, confocal microscopy. To be noted: 10 nM butyrate 6 h, 1 μM Aβ42 for the last hour; AF647 immunofluorescence.
Where [1] appears, read: 10 nM butyrate 6 h with 50 nM insulin for 5 min, p<0.05.

Regarding “insulin: insulin used at 50 nM to stimulate insulin signaling”, in the assay on AKT (50 nM insulin 5 min alone), the “AKT phosphorylation vs untreated group” value was “not statistically significant”. For the same compound, the “ERK phosphorylation, fold increase vs untreated group” value in the assay on ERK (50 nM insulin 5 min alone, p<0.001) is 3 fold.

On to “Aβ42: unlabeled amyloid beta 42 peptide supplied by Aapptec [reference compound]”, for which the “RAGE expression, fold increase vs control” value in the assay with RAGE (1 μM Aβ42 for 1 h alone, p<0.05) worked out at 2.4 fold.

Take `CCCC(=O)O` [butyrate, sodium butyrate]: in the assay with RAGE (butyrate 5 h then co-incubation with 1 μM Aβ42 for 1 h), the “RAGE expression vs Aβ42 alone (reversal of Aβ42-induced increase)” value is reported as “not significant”. Besides, in the assay on claudin-5, the “Claudin-5 expression vs Aβ42 alone group” value is recorded as “increased”. In addition, in the assay on AKT (setting [1]), the “AKT phosphorylation, fold increase vs insulin alone-treated group” value came to 3 fold. Also, in the assay on ERK (setting [1]), the “ERK phosphorylation, fold increase vs insulin alone-treated group” value is reported as around 1.3 fold.
